Results on 8 compounds are retold here after US10766928B2, “Targeted conformationally-constrained kinked endosomal disrupting peptides” (priority 2012, dated 2020).

Values after ≈ are worked out from the molar mass of the structure shown. Like-named read-outs stand apart in the source and are kept apart here. Non-standard residues stand in square brackets, D forms with d. Residues, ends and D or L forms follow the SMILES beside them. *: point of attachment. Pentanoyl(5-NH-cholesteryl) = CC(C)CCC[C@@H](C)[C@H]1CC[C@H]2[C@@H]3CC=C4C[C@@H](NCCCCC(=O)*)CC[C@]4(C)[C@H]3CC[C@]12C; Cholesteryloxycarbonyl = CC(C)CCC[C@@H](C)[C@H]1CC[C@H]2[C@@H]3CC=C4C[C@@H](OC(=O)*)CC[C@]4(C)[C@H]3CC[C@]12C; PEG3 = NCCOCCOCCOCCC(=O)O; Pra = C#CC[C@H](N)C(=O)O; Aib = CC(C)(N)C(=O)O; Ahx = NCCCCCC(=O)O; βAla = NCCC(=O)O

Data set [1] relates to endosomes of Jurkat lymphocytes. Description: Endosome disruption in Jurkat lymphocytes: release of carboxyfluorescein from disulfide probe Compound 2, flow cytometry. A digest of the protocol: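 Human Jurkat cells treated with compounds plus disulfide probe Compound 2 (2.5 μM) for 14 h at 37 °C. Cytoplasmic release of pH-sensitive fluorophore Compound 3 quantified by flow cytometry. IC50 by non-linear regression; efficacy as % fluorescence change relative to Compound 1 maximum (100%).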

Data set [2] is described as follows: Thermodynamic solubility in PBS (pH 7.4). As to conditions: phosphate buffered saline. In kind it is physicochemical. An excerpt: Values in parentheses represent 95% confidence intervals. N.D., not determined.
Measurements represent duplicate or more replicates, with active peptides subjected to multiple replicates. ND: not determined. The peptide was non-toxic and soluble in cell culture medium at this concentration.

Where [3] appears, read: pH 7.4, Table 1, PBS pH 7.4, 24 hours at 22° C., ±S.D., read-out: Solubility (aq.).

On to `CC(=O)NC(C)(C)C(=O)NC(C)(C)C(=O)NC(C)(C)C(=O)N[C@@H](Cc1c[nH]c2ccccc12)C(=O)N[C@@H](Cc1c[nH]c2ccccc12)C(=O)N[C@@H](C)C(=O)N[C@@H](Cc1ccc(O)cc1)C(=O)N[C@@H](Cc1c[nH]c2ccccc12)C(=O)N1CCC[C@H]1C(=O)N1CCC[C@H]1C(=O)N[C@H](C(=O)N[C@@H](C)C(N)=O)C(C)C` [Compound 41] (Ac-[Aib][Aib][Aib]WWAYWPPVA-NH2), for which the “Endosome disruption activity (in words)” value in data set [1] (Jurkat endosome disruption assay) is listed as “substantial endosome disruption activity”. In addition, in data set [1] (Table 1, % change in cellular fluorescence relative to maximal response of Compound 1 (100%), Jurkat, 14 hours), the “Efficacy (% of max. 1)” value stood at 53%. Further, the EC50 in data set [1] (read-out: Potency (EC50), Table 1, Jurkat lymphocytes, probe Compound 2 (2.5 μM), 14 hours, 95% confidence interval in neighbouring cell) turned out to be 5.9 µM. The solubility thermodynamic at 24 h in data set [2] (setting [3]) is 24 ± 3 µM (≈ 35.3 µg/mL). Further, the IC50 in the data set on Jurkat lymphocytes (read-out: Toxicity (IC50), Table 1, Jurkat lymphocytes, 48 h at 37° C.) was above 100 µM.
Regarding `CC(=O)NC(C)(C)C(=O)NC(C)(C)C(=O)NC(C)(C)C(=O)NC(C)(C)C(=O)N[C@@H](Cc1c[nH]c2ccccc12)C(=O)N[C@@H](Cc1ccc(O)cc1)C(=O)N[C@@H](C)C(=O)N[C@@H](Cc1c[nH]c2ccccc12)C(=O)N[C@@H](Cc1ccc(O)cc1)C(=O)N[C@@H](C)C(=O)N[C@@H](Cc1c[nH]c2ccccc12)C(=O)N[C@@H](Cc1ccc(O)cc1)C(=O)N1CCC[C@H]1C(=O)N1CCC[C@H]1C(=O)N[C@H](C(=O)N[C@H](C(N)=O)C(C)C)C(C)C` [Compound 82] (Ac-[Aib][Aib][Aib][Aib]WYAWYAWYPPVV-NH2), the “Efficacy (% of 1)” value in data set [1] (Table 2, % of the effect of compound 1, calculated span of dose-response curve, ± standard deviation, Jurkat, 14 h) was 85 ± 7%. In addition, in data set [1] (read-out: Potency, Table 2, EC50 ± standard deviation, Jurkat lymphocytes, disulfide-linked fluorescent probe (2.5 μM), 14 h), the EC50 turned out to be 0.8 ± 0.2 µM. Moreover, in data set [2] (pH 7.4, Table 3, PBS pH 7.4, 24 h at 22° C., read-out: Solubility), the solubility thermodynamic at 24 h was found to be 2 ± 1 µM (≈ 3.96 µg/mL). Further, the IC50 with Jurkat lymphocytes (read-out: Toxicity, Table 3, IC50, Jurkat, 48 h at 37° C., footnote a: non-toxic and soluble in cell culture medium at this concentration) was above 16 µM.
In data set [1] (14 h), `CC(C)CCC[C@@H](C)[C@H]1CC[C@H]2[C@@H]3CC=C4C[C@@H](NCCCCC(=O)NCCC(=O)N[C@@H](CCC(=O)O)C(=O)N[C@@H](CCC(=O)O)C(=O)NCCOCCOCCOCCC(=O)NCCOCCOCCOCCC(=O)NC(C)(C)C(=O)NC(C)(C)C(=O)NC(C)(C)C(=O)NC(C)(C)C(=O)N[C@@H](Cc5c[nH]c6ccccc56)C(=O)N[C@@H](Cc5c[nH]c6ccccc56)C(=O)N[C@@H](C)C(=O)N[C@@H](Cc5ccc(O)cc5)C(=O)N[C@@H](Cc5c[nH]c6ccccc56)C(=O)N5CCC[C@H]5C(=O)N5CCC[C@H]5C(=O)N[C@H](C(=O)N[C@@H](C)C(N)=O)C(C)C)CC[C@]4(C)[C@H]3CC[C@]12C` [Compound 26, R = BEEOOUUUUWWAYWPPVA-CONH2] ({Pentanoyl(5-NH-cholesteryl)-βAla}-EE[PEG3][PEG3][Aib][Aib][Aib][Aib]WWAYWPPVA-NH2) had an EC50 of 0.1 µM. In data set [2] (Table 1, PBS pH 7.4, 24 hours at 22° C., ±S.D., read-out: Solubility (aq.)), the solubility at 24 h stood at 14 µM (≈ 38.1 µg/mL). Further, in the data set with Jurkat lymphocytes (48 h), the IC50 was 8 µM.
Consider `CC(C)CCC[C@@H](C)[C@H]1CC[C@H]2[C@@H]3CC=C4C[C@@H](NCCCCC(=O)NCCC(=O)N[C@@H](CCC(=O)O)C(=O)N[C@@H](CCC(=O)O)C(=O)NCCCCCC(=O)NCCCCCC(=O)NC(C)(C)C(=O)NC(C)(C)C(=O)NC(C)(C)C(=O)NC(C)(C)C(=O)N[C@@H](Cc5ccc(O)cc5)C(=O)N[C@@H](Cc5ccc(O)cc5)C(=O)N[C@@H](C)C(=O)N[C@@H](Cc5ccc(O)cc5)C(=O)N[C@@H](Cc5ccc(O)cc5)C(=O)N5CCC[C@H]5C(=O)N5CCC[C@H]5C(=O)N[C@H](C(=O)N[C@H](C(N)=O)C(C)C)C(C)C)CC[C@]4(C)[C@H]3CC[C@]12C` [Compound 25, R = BEEXXUUUUYYAYYPPVV-CONH2] ({Pentanoyl(5-NH-cholesteryl)-βAla}-EE[Ahx][Ahx][Aib][Aib][Aib][Aib]YYAYYPPVV-NH2), for which, in data set [1] (14 h), the EC50 turned out to be 0.09 µM. Further, the solubility thermodynamic at 24 h in data set [2] (setting [3]) stood at 22 ± 1 µM (≈ 54.9 µg/mL). In the data set with Jurkat lymphocytes (48 h), this compound yielded an IC50 of 9 µM.
On to `C#CC[C@H](NC(=O)[C@H](CCC(=O)O)NC(=O)[C@H](CCC(=O)O)NC(=O)CCNC(=O)CCNC(=O)O[C@H]1CC[C@@]2(C)C(=CC[C@H]3[C@@H]4CC[C@H]([C@H](C)CCCC(C)C)[C@@]4(C)CC[C@@H]32)C1)C(=O)NCCOCCOCCOCCC(=O)NCCOCCOCCOCCC(=O)NC(C)(C)C(=O)NC(C)(C)C(=O)NC(C)(C)C(=O)NC(C)(C)C(=O)N[C@@H](Cc1c[nH]c2ccccc12)C(=O)N[C@@H](Cc1c[nH]c2ccccc12)C(=O)N[C@@H](C)C(=O)N[C@@H](Cc1ccc(O)cc1)C(=O)N[C@@H](Cc1c[nH]c2ccccc12)C(=O)N1CCC[C@H]1C(=O)N1CCC[C@H]1C(=O)N[C@H](C(=O)N[C@H](C(N)=O)C(C)C)C(C)C` [Compound 36, R″ = BEEZOOUUUUWWAYWPPVV-CONH2] ({Cholesteryloxycarbonyl-βAla-βAla}-EE[Pra][PEG3][PEG3][Aib][Aib][Aib][Aib]WWAYWPPVV-NH2), for which the EC50 in data set [1] (14 h) amounted to 0.06 µM. For the same compound, in data set [2] (setting [3]), the solubility thermodynamic at 24 h amounted to 233 ± 21 µM (≈ 666 µg/mL). The same compound gave an IC50 with Jurkat lymphocytes (48 h) of 13 µM.
For the compound `C#CC[C@H](NC(=O)[C@H](CCC(=O)O)NC(=O)[C@H](CCC(=O)O)NC(=O)CCNC(=O)CCNC(=O)O[C@H]1CC[C@@]2(C)C(=CC[C@H]3[C@@H]4CC[C@H]([C@H](C)CCCC(C)C)[C@@]4(C)CC[C@@H]32)C1)C(=O)NCCOCCOCCOCCC(=O)NCCOCCOCCOCCC(=O)NC(C)(C)C(=O)NC(C)(C)C(=O)NC(C)(C)C(=O)NC(C)(C)C(=O)N[C@@H](Cc1ccc(O)cc1)C(=O)N[C@@H](Cc1ccc(O)cc1)C(=O)N[C@@H](C)C(=O)N[C@@H](Cc1ccc(O)cc1)C(=O)N[C@@H](Cc1ccc(O)cc1)C(=O)N1CCC[C@H]1C(=O)N1CCC[C@H]1C(=O)N[C@H](C(=O)N[C@H](C(N)=O)C(C)C)C(C)C` [Compound 38, R″ = BEEZOOUUUUYYAYYPPVV-CONH2] ({Cholesteryloxycarbonyl-βAla-βAla}-EE[Pra][PEG3][PEG3][Aib][Aib][Aib][Aib]YYAYYPPVV-NH2), in data set [1] (14 h), the EC50 is 0.04 µM and the IC50 worked out at 0.04 µM. Further, in data set [1] (Jurkat, toxicity after 48 hours), the “Selectivity for disruption of endosomes over toxicity to cells in culture” value is on record as “greater than hundredfold”. Further, the solubility thermodynamic at 24 h in data set [2] (setting [3]) came out at 1060 ± 19 µM (≈ 2950 µg/mL). Also, the IC50 with Jurkat lymphocytes (48 h) was 8 µM.
On to `CC(C)CCC[C@@H](C)[C@H]1CC[C@H]2[C@@H]3CC=C4C[C@@H](NCCCCC(=O)NCCC(=O)N[C@@H](CCC(=O)O)C(=O)N[C@@H](CCC(=O)O)C(=O)NCCCCCC(=O)NC(C)(C)C(=O)NC(C)(C)C(=O)NC(C)(C)C(=O)N[C@@H](Cc5c[nH]c6ccccc56)C(=O)N[C@@H](Cc5c[nH]c6ccccc56)C(=O)N[C@@H](C)C(=O)N[C@@H](Cc5ccc(O)cc5)C(=O)N[C@@H](Cc5c[nH]c6ccccc56)C(=O)N5CCC[C@H]5C(=O)N5CCC[C@H]5C(=O)N[C@H](C(=O)N[C@@H](C)C(N)=O)C(C)C)CC[C@]4(C)[C@H]3CC[C@]12C` [Compound 9, R = BEEXUUUWWAYWPPVA-CONH2] ({Pentanoyl(5-NH-cholesteryl)-βAla}-EE[Ahx][Aib][Aib][Aib]WWAYWPPVA-NH2), for which, in data set [1] (14 h), the EC50 came out at 0.4 µM. Moreover, in data set [2] (setting [3]), the solubility thermodynamic at 24 h came to 12 ± 1 µM (≈ 28.1 µg/mL). Besides, the IC50 with Jurkat lymphocytes (48 h) came out at 11 µM.
Consider `CC(C)CCC[C@@H](C)[C@H]1CC[C@H]2[C@@H]3CC=C4C[C@@H](NCCCCC(=O)NCCC(=O)N[C@@H](CCC(=O)O)C(=O)N[C@@H](CCC(=O)O)C(=O)NCCOCCOCCOCCC(=O)NCCOCCOCCOCCC(=O)NC(C)(C)C(=O)NC(C)(C)C(=O)NC(C)(C)C(=O)NC(C)(C)C(=O)N[C@@H](Cc5ccc(O)cc5)C(=O)N[C@@H](Cc5ccc(O)cc5)C(=O)N[C@@H](Cc5ccc(O)cc5)C(=O)N[C@@H](Cc5ccc(O)cc5)C(=O)N[C@@H](Cc5ccc(O)cc5)C(=O)N5CCC[C@H]5C(=O)N5CCC[C@H]5C(=O)N[C@H](C(=O)N[C@H](C(N)=O)C(C)C)C(C)C)CC[C@]4(C)[C@H]3CC[C@]12C` [Compound 29, R = BEEOOUUUUYYYYYPPVV-CONH2] ({Pentanoyl(5-NH-cholesteryl)-βAla}-EE[PEG3][PEG3][Aib][Aib][Aib][Aib]YYYYYPPVV-NH2), for which, in data set [1] (14 h), the EC50 turned out to be 0.08 µM. In addition, the solubility thermodynamic at 24 h in data set [2] (setting [3]) was 90 ± 2 µM (≈ 249 µg/mL). The compound further displayed an IC50 in the data set on Jurkat lymphocytes (48 h) of 3 µM.
